Reference: patent US12227514B2, “Crystal forms of thiophene derivatives” (TIANJIN HEMAY PHARMACEUTICAL CO., LTD., priority 2018, dated 2025)

Experiments:
Assay type in all cases: physicochemical
[1] = Dissolution rate in water; conditions: about 25 mg in 900 mL water, 37° C., rotating speed 100/minute
Experimental: The crystal form I of (S)—N-[5-[1-(3-ethoxy-4-methoxyphenyl)-2-(methylsulfonyl)ethyl]-4,6-dioxo-5,6-dihydro-4H-thieno[3,4-c]pyrrole-1-yl]acetamide prepared according to the process in Example 1 was tested.
About 25 mg of crystal form I of (S)—N-[5-[1-(3-ethoxy-4-methoxyphenyl)-2-(methylsulfonyl)ethyl]-4,6-dioxo-5,6-dihydro-4H-thieno[3,4-c]pyrrole-1-yl]acetamide was added to 900 mL of water. The mixture was stirred at a rotating speed of 100/minute at 37° C. for 90 minutes. The supernatant was filtered and diluted. The concentration of the diluted solution (a mg/mL) was determined by ultraviolet spectrophotometer. The dissolution rate was calculated according to the formula 900a/25×100%.

[2] = Pressure stability (tablet press, DSC); conditions: single punch tablet press, tablet diameter 6 mm, hardness 25-30 N
Experimental: Crystal form I of (S)—N-[5-[1-(3-ethoxy-4-methoxyphenyl)-2-(methylsulfonyl)ethyl]-4,6-dioxo-5,6-dihydro-4H-thieno[3,4-c]pyrrole-1-yl]acetamide was pressed by tablet press machine with single punch. The diameter of the tablet was 6 mm and the hardness was 25-30 N. DSC test was carried out on pressed powder.

[3] = High temperature stability and high temperature and high humidity stability; conditions: for Relevant Substance Contents after 1 Month: storage at 40° C.
Experimental: High Temperature Stability and High Temperature and High Humidity Stability Crystal form I of (S)—N-[5-[1-(3-ethoxy-4-methoxyphenyl)-2-(methylsulfonyl)ethyl]-4,6-dioxo-5,6-dihydro-4H-thieno[3,4-c]pyrrole-1-yl]acetamide was placed at 40° C. (high temperature) or at 40° C. and Rh=75% (high temperature and high humidity) for 1 month. Relevant substance contents of crystal form I of (S)—N-[5-[1-(3-ethoxy-4-methoxyphenyl)-2-(methylsulfonyl)ethyl]-4,6-dioxo-5,6-dihydro-4H-thieno[3,4-c]pyrrole-1-yl]acetamide were tested after 1 month.

[4] = Moisture absorption stability; conditions: RH=80%
Experimental: (§1) Crystal form I of (S)—N-[5-[1-(3-ethoxy-4-methoxyphenyl)-2-(methylsulfonyl)ethyl]-4,6-dioxo-5,6-dihydro-4H-thieno[3,4-c]pyrrole-1-yl]acetamide was placed in a drier containing saturated ammonium chloride solution (RH=80%) until weight was balanced. The crystal form stability of (S)—N-[5-[1-(3-ethoxy-4-methoxyphenyl)-2-(methylsulfonyl)ethyl]-4,6-dioxo-5,6-dihydro-4H-thieno[3,4-c]pyrrole-1-yl]acetamide was tested after weight was balanced.

Illumination stability = experiment: Illumination stability
Experimental: as §1, with “4500 lux of illumination box for 1 month. Crystal” for “drier containing saturated ammonium chloride solution (RH=80%) until weight was balanced. The crystal”, “1 month.” for “weight was balanced.”

Dissolution Rate ([1]; time 15 min): 40.0% | Dissolution Rate ([1]; time 30 min): 55.9% | Dissolution Rate ([1]; time 45 min): 65.2% | Dissolution Rate ([1]; time 60 min): 71.4% | Dissolution Rate ([1]; time 75 min): 75.5% | Dissolution Rate ([1]; time 90 min): 78.0% | Pressure stability (DSC curve of pressed powder compared with FIG. 2) [2]: good stability | Chemical stability under high temperature and high-temperature and high-humidity conditions ([3]; 40° C. or 40° C. and RH 75%, 1 month): good chemical stability | Relevant Substance Contents at Day 0 ([3]; before storage): 0.06% | Relevant Substance Contents after 1 Month [3]: 0.07% | Relevant Substance Contents after 1 Month ([3]; RH = 75%): 0.09% | Crystal form stability under high humidity conditions [4]: good crystal form stability | Relevant Substance Contents after 1 Month (Illumination stability; 4500 lux illumination box): 0.06% | Chemical stability under illumination conditions (Illumination stability; 4500 lux, 1 month): good chemical stability | Relevant Substance Contents at Day 0 (Illumination stability; before illumination): 0.06%
Structure (SMILES): CCOc1cc([C@@H](CS(C)(=O)=O)N2C(=O)c3csc(NC(C)=O)c3C2=O)ccc1OC [crystal form I, (S)—N-[5-[1-(3-ethoxy-4-methoxyphenyl)-2-(methylsulfonyl)ethyl]-4,6-dioxo-5,6-dihydro-4H-thieno[3,4-c]pyrrole-1-yl]acetamide]
